Source: patent publication US4201866A, “O-Hemi-succinate of propranolol” (American Home Products Corporation, priority 1977, dated 1980)
Where “and” joins values, the source holds several entries; their conditions need not be identical. Identical values can stand only once. Counter-ions that a name gives are not always drawn. Like-named read-outs stand apart in the source and are kept apart here.

Columns and labels:
[1] = Oral administration of propranolol-o-hemi-succinate HCl and propranolol HCl; plasma levels of free propranolol (Example 2); type: in vivo, beagle dogs; settings: 80 mg propranolol HCl or equivalent
Method: In this experiment, four beagle dogs were given an 80 mg. oral dose of propranolol HCl or an equivalent dose of the o-hemi-succinate. The animals were divided into two groups of two, each group receiving the drugs according to a crossover design. The crossover experiment was repeated twice. A period of at least one week elapsed between each dosing day. Blood samples were obtained at regular intervals after dosing a plasma was analyzed for free propranolol concentrations.
(§1) Plasma was analyzed for free propranolol by a TLC fluorometric procedure. Two ml samples were mixed with 2 ml of pH 10 buffer and extracted with 25 ml of ethyl ether. A 20 ml aliquot from the ether phase was evaporated to dryness and the dry residue was dissolved in 100 μl of ethanol. Twenty-five μl aliquots were spotted on TLC plates of silica gel along with standard solutions of propranolol. The plates were developed in a saturated tank containing the solvent system methanol (100 ml): concentrated NH4 OH (0.4 ml). After development, the plates were dried and sprayed with a 50% solution of propylene glycol in water. They were then read in the fluorescence mode of a Schoeffel spectrodensitometer. The limit of reliable quantitation was 2 ng. of propranolol per ml of plasma.

[2] = Intravenous administration of propranolol HCl and propranolol-o-hemi-succinate HCl; plasma levels of free propranolol (Example 3); type: in vivo, beagle dogs; settings: i.v., 20 mg propranolol HCl or equivalent
Method: as §1
In this experiment, the same four dogs used in Example 2 were administered a 20 mg intravenous dose of propranolol HCl on one experimental day and an equivalent dose of the o-hemi-succinate on a second day. A period of one week elapsed between each administration. Blood samples were collected and analyzed as above.

[3] = Oral administration of a reduced dose of propranolol-o-hemi-succinate hydrochloride; plasma levels of free propranolol (Example 4); type: in vivo, beagle dogs
Method: Two beagle dogs were given an oral dose of 13.4 mg of propranolol-O-hemi-succinate hydrochloride (equivalent to 10 mg. propranolol HCl). Blood samples were obtained at regular intervals after drug administration and plasma analyzed for free propranolol. Plasma levels of free propranolol were compared to those obtained following administration of 80 mg dose of propranolol HCl.

[4] = cited from earlier work

With `CC(C)NCC(O)COc1cccc2ccccc12` (centres unmarked) [propranolol HCl, 1-isopropyl-amino-3-(1-naphthoxy)-2-propanol] the “Plasma level of free propranolol” value ([1]; 0 h, individual dogs) was 0 ng/mL, the “Mean plasma level of free propranolol” value ([1]; 0 h, mean of Study 1, Study 2 or overall) was 0 ng/mL and the “C.V. of overall mean AUC 0-6 hr” value [1] was 65%. For the same compound, the “s.d. of overall mean AUC 0-6 hr” value [1] was 87 ng·h/mL, the “AUC 0-6 hr of free propranolol” value ([1]; individual dogs, listed as propranolol hydrochloride, 360 min) was 69 ng·h/mL and 63 ng·h/mL and 29 ng·h/mL and 160 ng·h/mL and 189 ng·h/mL and 171 ng·h/mL and 297 ng·h/mL and 99 ng·h/mL and the “Plasma level of free propranolol” value ([1]; 1/2 hr after dosing, individual dogs) was 0 ng/mL. For the same compound, the “Plasma level of free propranolol” value ([1]; 1/2 hr after dosing, individual dogs, 30 min, listed as propranolol hydrochloride, 30 min) was 23 ng/mL and 103 ng/mL and 24 ng/mL, the “Plasma level of free propranolol” value ([1]; 1/2 hr after dosing, individual dogs, listed as propranolol hydrochloride) was “trace” and the “Plasma level of free propranolol” value ([1]; 1 hr after dosing, individual dogs, listed as propranolol hydrochloride) was “trace and 0 ng/ml”. For the same compound, the “Plasma level of free propranolol” value ([1]; 1 hr after dosing, individual dogs, listed as propranolol hydrochloride, 60 min) was 11 ng/mL and 56 ng/mL and 31 ng/mL and 101 ng/mL and 24 ng/mL, the “Plasma level of free propranolol” value ([1]; 2 hr after dosing, individual dogs, listed as propranolol hydrochloride) was “trace” and the “Plasma level of free propranolol” value ([1]; 2 hr after dosing, individual dogs, listed as propranolol hydrochloride, 120 min) was 23 ng/mL and 14 ng/mL and 45 ng/mL and 51 ng/mL and 65 ng/mL and 19 ng/mL. For the same compound, the “Plasma level of free propranolol” value ([1]; 4 hr after dosing, individual dogs, listed as propranolol hydrochloride) was “trace”, the “Plasma level of free propranolol” value ([1]; 4 hr after dosing, individual dogs, listed as propranolol hydrochloride, 240 min) was 26 ng/mL and 14 ng/mL and 12 ng/mL and 36 ng/mL and 33 ng/mL and 17 ng/mL and the “Plasma level of free propranolol” value ([1]; 6 hr after dosing, individual dogs, listed as propranolol hydrochloride) was 0 ng/ml and trace. The “Plasma level of free propranolol” value ([1]; 6 hr after dosing, individual dogs, listed as propranolol hydrochloride, 360 min) was 17 ng/mL and 21 ng/mL and 6 ng/mL, the half-life ([1]; dog, plasma) was 1.8 h and the AUC at 6 h ([1]; dog, plasma, po, 80 mg, read-out: average AUC (0-6 hr.) of free propranolol, overall study) was 132 ng·h/mL. For the same compound, the “Plasma level of free propranolol” value ([2]; 0 h, individual dogs) was 0 ng/mL, the “Mean plasma level of free propranolol” value ([2]; 0 h, mean) was 0 ng/mL and the “Plasma level of free propranolol” value ([2]; 1/2 hr after dosing, individual dogs, 30 min) was 232 ng/mL and 269 ng/mL and 144 ng/mL. For the same compound, the “Plasma level of free propranolol” value ([2]; 5 min after dosing, individual dogs, 5 min) was 391 ng/mL and 312 ng/mL and 376 ng/mL and 194 ng/mL, the “Plasma level of free propranolol” value ([2]; 10 min after dosing, individual dogs, 10 min) was 368 ng/mL and 319 ng/mL and 177 ng/mL and the “Plasma level of free propranolol” value ([2]; 15 min after dosing, individual dogs, 15 min) was 320 ng/mL and 271 ng/mL and 149 ng/mL. For the same compound, the “Plasma level of free propranolol” value ([2]; 1 hr after dosing, individual dogs, 60 min) was 207 ng/mL and 229 ng/mL and 128 ng/mL, the “Plasma level of free propranolol” value ([2]; 2 hr after dosing, individual dogs, 120 min) was 149 ng/mL and 119 ng/mL and 122 ng/mL and the “Plasma level of free propranolol” value ([2]; 4 hr after dosing, individual dogs, 240 min) was 114 ng/mL and 87 ng/mL and 61 ng/mL. The “Plasma level of free propranolol” value ([2]; 6 hr after dosing, individual dogs, 360 min) was 45 ng/mL and 28 ng/mL and 39 ng/mL, the concentration at 0.5 h ([2]; dog, plasma, iv, 20 mg, 1/2 hr after dosing, individual dogs, read-out: Plasma level of free propranolol) was 280 ng/mL and the concentration at 0.5 h ([2]; dog, plasma, iv, 20 mg, 1/2 hr after dosing, mean, read-out: Mean plasma level of free propranolol) was 231 ng/mL. The concentration at 5 min ([2]; dog, plasma, iv, 20 mg, 5 min after dosing, mean, read-out: Mean plasma level of free propranolol) was 318 ng/mL, the concentration at 10 min ([2]; dog, plasma, iv, 20 mg, 10 min after dosing, mean, read-out: Mean plasma level of free propranolol) was 288 ng/mL and the concentration at 0.25 h ([2]; dog, plasma, iv, 20 mg, 15 min after dosing, mean, read-out: Mean plasma level of free propranolol) was 247 ng/mL. For the same compound, the concentration at 1 h ([2]; dog, plasma, iv, 20 mg, 1 hr after dosing, individual dogs, read-out: Plasma level of free propranolol) was 240 ng/mL, the concentration at 1 h ([2]; dog, plasma, iv, 20 mg, 1 hr after dosing, mean, read-out: Mean plasma level of free propranolol) was 201 ng/mL and the concentration at 2 h ([2]; dog, plasma, iv, 20 mg, 2 hr after dosing, individual dogs, read-out: Plasma level of free propranolol) was 191 ng/mL. The concentration at 2 h ([2]; dog, plasma, iv, 20 mg, 2 hr after dosing, mean, read-out: Mean plasma level of free propranolol) was 145 ng/mL, the concentration at 4 h ([2]; dog, plasma, iv, 20 mg, 4 hr after dosing, mean, read-out: Mean plasma level of free propranolol) was 79 ng/mL and the concentration at 6 h ([2]; dog, plasma, iv, 20 mg, 6 hr after dosing, individual dogs, read-out: Plasma level of free propranolol) was 53 ng/mL. For the same compound, the concentration at 6 h ([2]; dog, plasma, iv, 20 mg, 6 hr after dosing, mean, read-out: Mean plasma level of free propranolol) was 41 ng/mL, the AUC at 6 h ([2]; dog, plasma, iv, 20 mg, individual dogs, read-out: AUC 0-6 hr of free propranolol) was 974 ng·h/mL and the AUC at 6 h ([2]; dog, plasma, iv, 20 mg, read-out: average AUC of free propranolol) was 746 ng·h/mL. The “AUC 0-6 hr of free propranolol” value ([2]; individual dogs, 360 min) was 744 ng·h/mL and 615 ng·h/mL and 534 ng·h/mL, the “Plasma level of free propranolol” value ([3]; 0 h, 80 mg propranolol HCl or 13.4 mg hemi-succinate HCl, individual dogs) was 0 and the “AUC of free propranolol” value ([3]; 13.4 mg hemi-succinate HCl or 80 mg propranolol HCl, dog #353 (101, 92), dog #250 (114, 168), 360 min) was 168. For the same compound, the “Plasma level of free propranolol” value ([3]; 1/2 hour after dosing, 80 mg propranolol HCl or 13.4 mg hemi-succinate HCl, individual dogs, 30 min) was 18, the “Plasma level of free propranolol” value ([3]; 1 hour after dosing, 80 mg propranolol HCl or 13.4 mg hemi-succinate HCl, individual dogs, 60 min) was 44 and the “Plasma level of free propranolol” value ([3]; 2 hours after dosing, 80 mg propranolol HCl or 13.4 mg hemi-succinate HCl, individual dogs, 120 min) was 51 and 24. For the same compound, the “Plasma level of free propranolol” value ([3]; 4 hours after dosing, 80 mg propranolol HCl or 13.4 mg hemi-succinate HCl, individual dogs, 240 min) was 26 and 7, the “Plasma level of free propranolol” value ([3]; 6 hours after dosing, 80 mg propranolol HCl or 13.4 mg hemi-succinate HCl, individual dogs) was 0 and the AUC at 6 h ([3]; dog, plasma, po, 80 mg, 13.4 mg hemi-succinate HCl or 80 mg propranolol HCl, dog #353 (101, 92), dog #250 (114, 168)) was 92 ng·h/mL. For the same compound, the concentration at 0.5 h ([3]; dog, plasma, po, 80 mg, 1/2 hour after dosing, 80 mg propranolol HCl or 13.4 mg hemi-succinate HCl, individual dogs, read-out: Plasma level of free propranolol) was 10 ng/mL, the concentration at 1 h ([3]; dog, plasma, po, 80 mg, 1 hour after dosing, 80 mg propranolol HCl or 13.4 mg hemi-succinate HCl, individual dogs, read-out: Plasma level of free propranolol) was 38 ng/mL and the concentration at 6 h ([3]; dog, plasma, po, 80 mg, 6 hours after dosing, 80 mg propranolol HCl or 13.4 mg hemi-succinate HCl, individual dogs, read-out: Plasma level of free propranolol) was 9 ng/mL. For the same compound, the “unchanged active material reaching the systemic circulation after oral administration” value ([4]; because of extensive metabolism) was “little unchanged active material” and the “patient to patient variation of plasma levels” value ([4]; oral) was “large patient to patient variation”.
